Source: patent US4015974A, “Amido phosphorothiolates” (priority 1972, dated 1977)

What was measured:
Format in all cases: in vivo
[1] = tested on: broad-leaved weeds, e.g., monochoria, false pimpernel and toothcup; test: Water application, herbicidal effect on broad-leaved weeds (Table 2); set-up: key: 0: not damaged; 5: completely killed; settings: 25 days, score 0-5
Source text: (§1) Wagner pots of 14 cm. in diameter, which had been packed with 1.5 kg. of paddy field soil, were brought into the state of paddy fields. To the pots were transplanted rice seedlings at the 3-leave stage. Further, seeds of barnyard grass (Echinochloa crus-galli) were sowed in the pots and required amounts of test compounds were applied to the soil under water lodged condition. 25 days after application, the degrees of herbicidal activity and phytotoxity were investigated on above-mentioned plants which had been transplanted and sowed, and on broad-leaved weeds, e.g., monochoria (Monochoria viaginalis Presl.), false pimpernel (Linderna pyxidaria) and toothcup (Rotala indica Koehue), which had been spontaneously germinated. The test compounds were used in the form of wettable powder. The herbicidal effects and the phytotoxity were evaluated as follows by the numerals ranging from 0 to 5.

rice = test: Water application, phytotoxicity on rice (Table 2); set-up: key: 0: no effect; 1: very slightly affected; 2: slightly affected; 3: moderately affected; 4: considerably affected; 5: completely killed; settings: 25 days, score 0-5
Source text: as §1

[2] = tested on: barnyard grass (Echinochloa crus-galli); test: Water application, herbicidal effect on barnyard grass (Table 2); set-up: key: 0: not damaged; 5: completely killed; settings: 25 days, score 0-5
Source text: as §1

[3] = tested on: barnyard grass (Echinochloa crus-galli); test: Pre-emergence application, herbicidal effect on barnyard grass (Table 1); set-up: key: 0: not damaged; 5: completely killed; settings: 20 days after application, score 0-5
Source text: (§2) Seeds of barnyard grass (Echinochloa crus-galli) and large crabgrass (Digitaria sanguinalis) as representatives of grassy weeds and those of radish, redroot pigweed (Amaranthus retroflexus), common purslane (Portulaca oleracea) and common lambsquarter (Chenopodium album) as representatives of broad-leaved weeds were individually sowed in flower pots of about 10 cm. in diameter. After covering the seeds with soil, test compounds as shown in Table 1 were individually applied to the soil treatment. Thereafter the plants were grown in a green house and 20 days after application the herbicidal effects of the compounds were observed, the results of which are as shown in Table 1.
(§3) Herbicidal effects were evaluated by the numerals ranging from 0 (not damaged) to 5 (completely killed). All the test compounds were used in the form of wettable powder and diluted with water before application.

[4] = tested on: large crabgrass (Digitaria sanguinalis); test: Pre-emergence application, herbicidal effect on large crabgrass (Table 1); set-up: key: 0: not damaged; 5: completely killed; settings: 20 days after application, score 0-5
Source text: as §2, §3

[5] = tested on: common purslane (Portulaca oleracea); test: Pre-emergence application, herbicidal effect on common purslane (Table 1); set-up: key: 0: not damaged; 5: completely killed; settings: 20 days after application, score 0-5
Source text: as §2, §3

[6] = tested on: redroot pigweed (Amaranthus retroflexus); test: Pre-emergence application, herbicidal effect on redroot pigweed (Table 1); set-up: key: 0: not damaged; 5: completely killed; settings: 20 days after application, score 0-5
Source text: as §2, §3

radish = test: Pre-emergence application, herbicidal effect on radish (Table 1); set-up: key: 0: not damaged; 5: completely killed; settings: 20 days after application, score 0-5
Source text: as §2, §3

[7] = tested on: common lambsquarter (Chenopodium album); test: Pre-emergence application, herbicidal effect on common lambsquarter (Table 1); set-up: key: 0: not damaged; 5: completely killed; settings: 20 days after application, score 0-5
Source text: as §2, §3

Row | SMILES | Herbicidal effects, broad-leaved weeds ([1]; 20 g/a) | Herbicidal effects, broad-leaved weeds ([1]; 40 g/a) | Phytotoxicity on rice (rice; 20 g/a) | Phytotoxicity on rice (rice; 40 g/a) | Herbicidal effects, barnyard grass ([2]; 20 g/a) | Herbicidal effects, barnyard grass ([2]; 40 g/a) | Herbicidal effect, barnyard grass ([3]; 10 g./a.) | Herbicidal effect, barnyard grass ([3]; 20 g./a.) | Herbicidal effect, barnyard grass ([3]; 40 g./a.) | Herbicidal effect, large crabgrass ([4]; 10 g./a.) | Herbicidal effect, large crabgrass ([4]; 20 g./a.) | Herbicidal effect, large crabgrass ([4]; 40 g./a.) | Herbicidal effect, common purslane ([5]; 10 g./a.) | Herbicidal effect, common purslane ([5]; 20 g./a.) | Herbicidal effect, common purslane ([5]; 40 g./a.) | Herbicidal effect, redroot pigweed ([6]; 10 g./a.) | Herbicidal effect, redroot pigweed ([6]; 20 g./a.) | Herbicidal effect, redroot pigweed ([6]; 40 g./a.) | Herbicidal effect, radish (radish; 10 g./a.) | Herbicidal effect, radish (radish; 20 g./a.) | other results
1 | O=[N+]([O-])c1ccc(Oc2ccc(Cl)cc2Cl)cc1 [NIP, reference compound] | 5 | 5 | 2 | 4 | 5 | 5 |  |  |  |  |  |  |  |  |  |  |  |  |  |  | 
2 | CCCOP(=O)(SCCC)SCC(=O)N1CCCCC1CC (stereo not drawn) [Compound 85] | 5 | 5 | 0 | 0 | 5 | 5 | 5 | 5 | 5 | 5 | 5 | 5 | 5 | 5 | 5 | 5 | 5 | 5 | 0 | 0 | Herbicidal effect, radish (radish; 40 g./a.): 0; Herbicidal effects, broad-leaved weeds ([1]; 10 g/a): 5; Phytotoxicity on rice (rice; 10 g/a): 0; Herbicidal effects, barnyard grass ([2]; 10 g/a): 5; Herbicidal effect, common lambsquarter ([7]; 10 g./a.): 5; Herbicidal effect, common lambsquarter ([7]; 20 g./a.): 5; Herbicidal effect, common lambsquarter ([7]; 40 g./a.): 5
3 | CCCCOP(=O)(SCCC)SCC(=O)N1CCCCC1CC (stereo not drawn) [Compound 93] | 5 | 5 | 0 | 0 | 5 | 5 | 5 | 5 | 5 | 5 | 5 | 5 | 4 | 4 | 5 | 4 | 5 | 5 | 0 | 0 | Herbicidal effect, radish (radish; 40 g./a.): 0; Herbicidal effects, broad-leaved weeds ([1]; 10 g/a): 5; Phytotoxicity on rice (rice; 10 g/a): 0; Herbicidal effects, barnyard grass ([2]; 10 g/a): 5; Herbicidal effect, common lambsquarter ([7]; 10 g./a.): 4; Herbicidal effect, common lambsquarter ([7]; 20 g./a.): 5; Herbicidal effect, common lambsquarter ([7]; 40 g./a.): 5
4 | CCCOP(=O)(SCCC(C)C)SCC(=O)N1CCCCC1CC (stereo not drawn) [Compound 90] | 5 | 5 | 0 | 1 | 5 | 5 | 5 | 5 | 5 | 5 | 5 | 5 | 3 | 4 | 5 | 3 | 4 | 5 | 0 | 0 | Herbicidal effect, radish (radish; 40 g./a.): 0; Herbicidal effects, broad-leaved weeds ([1]; 10 g/a): 5; Phytotoxicity on rice (rice; 10 g/a): 0; Herbicidal effects, barnyard grass ([2]; 10 g/a): 5; Herbicidal effect, common lambsquarter ([7]; 10 g./a.): 3; Herbicidal effect, common lambsquarter ([7]; 20 g./a.): 3; Herbicidal effect, common lambsquarter ([7]; 40 g./a.): 5
5 | CCCCCCSP(=O)(OCC)SCC(=O)N1CCCCC1C (stereo not drawn) [Compound 62] | 5 | 5 | 0 | 0 | 5 | 5 | 4 | 5 | 5 | 4 | 5 | 5 | 3 | 4 | 5 | 3 | 4 | 5 | 0 | 0 | Herbicidal effect, radish (radish; 40 g./a.): 0; Herbicidal effects, broad-leaved weeds ([1]; 10 g/a): 5; Phytotoxicity on rice (rice; 10 g/a): 0; Herbicidal effects, barnyard grass ([2]; 10 g/a): 5; Herbicidal effect, common lambsquarter ([7]; 10 g./a.): 4; Herbicidal effect, common lambsquarter ([7]; 20 g./a.): 4; Herbicidal effect, common lambsquarter ([7]; 40 g./a.): 5
6 | CCCOP(=O)(SC)SCC(=O)N1CCCCC1C (stereo not drawn) [Compound 66] | 5 | 5 | 0 | 0 | 5 | 5 | 5 | 5 | 5 | 5 | 5 | 5 | 5 | 5 | 5 | 5 | 5 | 5 | 0 | 0 | Herbicidal effect, radish (radish; 40 g./a.): 1; Herbicidal effects, broad-leaved weeds ([1]; 10 g/a): 5; Phytotoxicity on rice (rice; 10 g/a): 0; Herbicidal effects, barnyard grass ([2]; 10 g/a): 5; Herbicidal effect, common lambsquarter ([7]; 10 g./a.): 5; Herbicidal effect, common lambsquarter ([7]; 20 g./a.): 5; Herbicidal effect, common lambsquarter ([7]; 40 g./a.): 5
7 | CCOP(=O)(SC)SCC(=O)N1CCCCC1CC (stereo not drawn) [Compound 74] | 5 | 5 | 0 | 0 | 5 | 5 | 5 | 5 | 5 | 5 | 5 | 5 | 5 | 5 | 5 | 5 | 5 | 5 | 0 | 1 | Herbicidal effect, radish (radish; 40 g./a.): 2; Herbicidal effects, broad-leaved weeds ([1]; 10 g/a): 5; Phytotoxicity on rice (rice; 10 g/a): 0; Herbicidal effects, barnyard grass ([2]; 10 g/a): 5; Herbicidal effect, common lambsquarter ([7]; 10 g./a.): 5; Herbicidal effect, common lambsquarter ([7]; 20 g./a.): 5; Herbicidal effect, common lambsquarter ([7]; 40 g./a.): 5
8 | CCCCOP(=O)(SCC(=O)N1CCCCC1CC)SC(C)CC (stereo not drawn) [Compound 96] | 5 | 5 | 0 | 0 | 5 | 5 | 4 | 5 | 5 | 5 | 5 | 5 | 3 | 4 | 5 | 3 | 4 | 5 | 0 | 0 | Herbicidal effect, radish (radish; 40 g./a.): 0; Herbicidal effects, broad-leaved weeds ([1]; 10 g/a): 5; Phytotoxicity on rice (rice; 10 g/a): 0; Herbicidal effects, barnyard grass ([2]; 10 g/a): 5; Herbicidal effect, common lambsquarter ([7]; 10 g./a.): 3; Herbicidal effect, common lambsquarter ([7]; 20 g./a.): 4; Herbicidal effect, common lambsquarter ([7]; 40 g./a.): 5
